Here are results for one compound from patent US20100075435A1, “BIOTINYLATED THYROXINE” (priority 2008, published 2010).

The test system of this assay is T4-streptavidin (Biotin-PEG4-T4 streptavidin conjugate) immobilized flow cell Fc3. Description: SPR bivalent kinetic analysis of antibodies on T4-streptavidin immobilized flow cell (Biocore 3000, CM5 chip). In kind it is binding. The note with it: comparison of antibodies 1 and 2. Here is the method:
The biotinylated thyroxine obtained in Example 1 (PEG n=4) (Biotin-PEG4-T4) (1.2 mg) was dissolved in 189.8 microliters of DMSO.
A 98 microliter quantity of 1 mg/mL of streptavidin and 1.33 microliters of the DMSO solution (5 mM) of Biotin-PEG4-T4 obtained above were dissolved in 0.67 microliters of HBSN. Here, the streptavidin:biotin ratio was 1:4 (mole ratio).
A Biocore 3000 (Biocore) was employed as the surface plasmon resonance (SPR) device. CM5 sensor chips were employed, and four flow cells (Fc 1 to 4) were prepared according to the following procedure. The flow rate was 10 microliters/min.
A flow of a 70 microliter quantity of a mixed solution of equal quantities of EDC (1-ethyl-3-(3-dimethylaminopropyl)carbodiimide) and NHS (N-hydroxysuccinimide) was run (7 minutes), after which a flow of a 70 microliter quantity of a solution of streptavidin in […] (0.2 mg/mL, pH 5.0) was run (7 minutes). Subsequently, a flow of ethanolamine was similarly run.
A flow of a 70 microliter quantity of mixed solution of equal quantities of EDC and NHS was run (7 minutes), after which a flow of a 70 microliter solution of T4-streptavidin in […] (0.2 mg/mL, pH 5.0) was run (7 minutes). […]
It was necessary to conduct interaction analysis at the minimum level of immobilization within the range over which the S/N ratio could be calculated. […]

As to `COC(=O)C(Cc1cc(I)c(Oc2cc(I)c(O)c(I)c2)c(I)c1)NC(=O)CCOCCOCCOCCOCCNC(=O)CCCCC1SCC2NC(=O)NC21` (stereo not shown) [Example 1, Biotinylated Thyroxine (PEG n=4)], the binding rates entry is recorded as “about the same binding rates”.
